We go through one compound from article PMC9320114 (Molecules, 2022).

This test addresses MurC (Escherichia coli, UniProt P17952). The test can be described thus: Inhibition of MurC, colorimetric malachite green method. The test is classed as biochemical, bacterial. As to conditions: Table 2. Here is the method: Inhibition of Mur enzymes was monitored with the colorimetric malachite green method, which measured orthophosphate formed during reaction. The mixtures with a final volume of 50 µL contained:
MurC: 50 mM HEPES-NaOH, pH 8.0, 5 mM MgCl2, 0.005% Triton X-114, 120 µM L-Ala, 120 µM UDP-N-acetyl-muramic acid, 450 µM ATP, purified MurC, and 50 or 100 µM of each compound tested.
All compounds were soluble in the assay mixtures containing 5% DMSO (v/v). After incubation for 15 min (20 min for DdlB) at 37 °C, the enzyme reaction was terminated by addition of Biomol® reagent (100 µL) and absorbance was measured after 5 min at 650 nm (Synergy™ H4 microplate reader; BioTek Instruments, Inc., BioTek Gen5 Data Analysis Software, version 2.9, Santa Clara, CA, USA). All experiments were performed in duplicate.

Chain of MurC (P17952 whole entry): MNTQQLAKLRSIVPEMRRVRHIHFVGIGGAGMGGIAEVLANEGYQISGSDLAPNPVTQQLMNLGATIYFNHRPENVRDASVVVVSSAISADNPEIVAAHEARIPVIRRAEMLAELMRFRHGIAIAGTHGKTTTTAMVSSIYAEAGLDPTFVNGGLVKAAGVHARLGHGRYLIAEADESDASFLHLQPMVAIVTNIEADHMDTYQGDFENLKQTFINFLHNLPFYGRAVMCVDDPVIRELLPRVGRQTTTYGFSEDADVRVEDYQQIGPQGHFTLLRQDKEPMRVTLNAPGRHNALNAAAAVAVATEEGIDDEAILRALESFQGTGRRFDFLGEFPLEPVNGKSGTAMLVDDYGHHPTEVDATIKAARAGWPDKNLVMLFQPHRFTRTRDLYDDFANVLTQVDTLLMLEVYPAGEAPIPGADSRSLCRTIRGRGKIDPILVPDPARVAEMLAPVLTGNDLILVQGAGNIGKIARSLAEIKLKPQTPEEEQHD

A word on the IC50: it is the concentration that gives 50% inhibition. As for `CCCCc1nc2ccn(Cc3ccccc3-c3ccccc3)c(=O)c2n1Cc1ccc(-c2ccccc2-c2nnn[nH]2)cc1` [Compound 19], the remaining activity at 100 µM (0.25 h, residual activity at 100 µM, read-out: MurC RA (%)) was 15%. For the same compound, the 50% inhibitory concentration (IC50) (IC50 ± SEM, read-out: MurC IC50) is 75 ± 9 µM.
